Patent publication US9126941B2, “Treatment of hyperproliferative disorders with diarylhydantoin compounds” (The Regents of the University of California, priority 2005, dated 2015)

How the values were obtained:
Format in all cases: cell-based
AR = AR (Homo sapiens, UniProt P10275); test: cell-based; conditions: for a given dose / concentration
Procedure: It is well established that PSA levels are indicators of AR activities in prostate cancer. […] The LNCaP-AR cells are a line of lymph node carcinoma of prostate cells transduced with a plasmid that makes express androgen receptors. […] After four days incubation, secreted PSA levels were assayed using PSA ELISA kits (American Qualex, San Clemente, Calif.)

1AR cell line = test: Luciferase activity in the 1AR cell line; conditions: for a given dose
4AR cell line = test: Luciferase activity in the 4AR cell line; conditions: for a given dose, 1.25 to 10 μmol

Chain of AR (P10275 whole entry, looked up): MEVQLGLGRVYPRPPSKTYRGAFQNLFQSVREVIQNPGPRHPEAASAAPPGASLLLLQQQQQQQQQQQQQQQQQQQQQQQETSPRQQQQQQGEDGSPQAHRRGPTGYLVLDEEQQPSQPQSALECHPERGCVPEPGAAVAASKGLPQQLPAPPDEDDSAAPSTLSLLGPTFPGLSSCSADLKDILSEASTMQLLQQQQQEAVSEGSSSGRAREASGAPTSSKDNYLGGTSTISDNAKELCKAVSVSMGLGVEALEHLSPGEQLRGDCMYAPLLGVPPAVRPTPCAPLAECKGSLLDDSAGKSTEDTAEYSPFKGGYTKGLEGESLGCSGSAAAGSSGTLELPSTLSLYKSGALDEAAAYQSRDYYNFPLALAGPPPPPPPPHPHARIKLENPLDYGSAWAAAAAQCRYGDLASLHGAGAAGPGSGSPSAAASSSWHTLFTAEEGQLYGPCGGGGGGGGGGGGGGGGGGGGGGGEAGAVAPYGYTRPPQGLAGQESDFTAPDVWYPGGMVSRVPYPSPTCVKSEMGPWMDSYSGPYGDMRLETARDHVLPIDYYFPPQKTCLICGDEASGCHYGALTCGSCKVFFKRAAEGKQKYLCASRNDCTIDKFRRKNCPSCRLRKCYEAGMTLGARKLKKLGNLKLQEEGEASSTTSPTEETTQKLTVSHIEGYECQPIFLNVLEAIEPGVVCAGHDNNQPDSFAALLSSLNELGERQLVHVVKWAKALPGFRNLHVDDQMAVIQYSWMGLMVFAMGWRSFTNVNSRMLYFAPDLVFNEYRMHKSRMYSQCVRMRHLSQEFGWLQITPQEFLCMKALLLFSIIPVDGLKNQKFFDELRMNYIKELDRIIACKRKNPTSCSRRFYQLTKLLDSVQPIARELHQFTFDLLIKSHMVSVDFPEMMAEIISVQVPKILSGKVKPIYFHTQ

In the case of `CC1(C)C(=O)N(c2ccc(C#N)c(C(F)(F)F)c2)C(=S)N1c1ccc(O)cc1` [RD8, 4-[3-(4-hydroxyphenyl)-4,4-dimethyl-5-oxo-2-thioxoimidazolidin-1-yl]-2-trifluoromethylbenzonitrile], the “PSA level, LN/AR cell line, comparison” value (AR) was “less than the PSA level upon exposure to RD9”, the “Luciferase activity, 1AR cell line” value (1AR cell line) was “less than the luciferase activity upon exposure to RD9” and the “Luciferase activity, 4AR cell line (FIG. 26)” value (4AR cell line) was “less than the luciferase activity upon exposure to RD9”.
